# Reference: patent publication US9682961B2, “Quinazoline derivative” (CARNA BIOSCIENCES, INC., priority 2013, dated 2017)
# Experiments:
# [1] = tested on: AXIN2 protein expression; experiment: Expression level of Wnt/β-catenin target protein AXIN2 by western blotting in HCT116 cells; assay type: cell-based; settings: Homo sapiens, 24 hours, read-out: Inhibition rate (%) AXIN2 protein
# Method: Expression levels of target proteins of the Wnt/β-catenin signaling pathway was analyzed by western blotting method, and effects of the compound of the present invention on Wnt/β-catenin signaling activity were studied by using a change of these levels as an indicator. HCT116 cells cultured in the same manner as in Test Example 2 were diluted with the medium 1 so as to have a cell concentration of 5×10^5 cells/mL, and 5 mL of the diluted cells were seeded into T25 flasks, followed by culturing overnight in the 5% CO2 incubator. Next day, solutions of the compound to be tested obtained by diluting 10 and 3 mM DMSO stock solutions of the compound to be tested 100-fold with the medium 1 were added to each flask so that the amount of the solution in the flask was one tenth of the amount of the final solution (final concentrations of the compound to be tested: 10 and 3 μM). […] Supernatant was recovered by centrifugal operation (15,000 rpm, 10 min.) and amounts of proteins were determined. […] Thereafter, using a CCD camera (GE Healthcare Co., ImageQuant LAS 500), the respective bands were detected by chemiluminescence. The detected bands were quantified by densitometry (GE Healthcare Co., ImageQuant TL v8.1.0.0). Inhibition rates were calculated from the intensities of the bands in the respective groups, with the luminescence of the band of the DMSO added group being 100%. […]
# [2] = tested on: AXIN2 gene expression; experiment: Expression level of Wnt/β-catenin target gene AXIN2 by real-time PCR in HCT116 cells; assay type: cell-based, human; settings: 10 and 3 μM, 24 hours
# Method: Effects of the compound of the present invention on Wnt/β-catenin signaling activity were studied using the real-time PCR method as well as using as an indicator changes in expression levels of target genes of the Wnt/β-catenin signaling pathway. To a RPMI 1640 medium (NACALAI TESQUE, INC.), 10% FBS (AusGeneX PTY LTD.) and 1% Penicillin/Streptomycin (NACALAI TESQUE, INC.) were added to prepare a cell culture medium (hereinafter referred to as medium 1). In a T75 flask, HCT116 cells (ATCC No. CCL-247) were added to the medium 1. The cells in the flask were cultured in the 5% CO2 incubator. The cultured HCT116 cells were diluted with the medium 1 so as to have a cell concentration of 1.1×10^5 cells/mL. Into the T75 flask, 13.5 mL of the diluted cells was seeded, followed by culturing overnight in the 5% CO2 incubator. […] Total RNA concentration was measured by a microspectrophotometer (Thermo Fisher Scientific Inc., Nano Drop ND-1000). […] The results were calculated as the expression ratio of the target gene to the endogenous control gene (β-Actin) by the comparative Ct method using a DMSO group as a reference.
smiles,measurement,setting,value
"O[C@H]1CC[C@@H](Oc2cccc3cnc(Nc4ccc5nc[nH]c5c4)nc23)CC1 [Example 1, cis-4-({2-[(1H-benzo[d]imidazol-6-yl)amino]quinazolyn-8-yl}oxy)cyclohexanol]",inhibition at 3 µM,"[1]; HCT-116, 3 μM",46.1%
same,inhibition at 10 µM,"[1]; HCT-116, 10 μM",66.9%
same,AXIN2 gene expression,[2],inhibited the expression of AXIN2 and c-MYC
